These results are taken from patent US7736861B1, “Tivozanib response prediction” (AVEO Pharmaceuticals, Inc., priority 2009, dated 2010).

One assay deals with preclinical models. The conditions noted are these: Nakamura et al., 2006; cited from earlier work.
For assay [1] the following is noted: 272-patient Phase 2 clinical trial; Bhargava et al., 2009; cited from earlier work.
For another assay, the target named is VEGF receptor 3 (Homo sapiens, UniProt P35916). The conditions noted are these: Nakamura et al., 2006; cited from earlier work.
Assay [2] deals with murine breast tumors (Her2-dependent, BH archive). Briefly: murine breast tumor response to tivozanib (BH archive tumors transplanted subcutaneously in NCr nude mice). It is filed as in vivo, mouse. The source says: A library of more than 100 murine breast tumors (BH archive) was used to identify tumors that are sensitive to tivozanib (responders) and tumors that are resistant to tivozanib (non-responders). The BH archive was established by in vivo propagation and cryopreservation of primary tumor material from more than 100 spontaneous murine breast tumors derived from engineered chimeric mice that develop Her2-dependent, inducible spontaneous breast tumors. The mice were produced essentially as follows.
Tumor cells were isolated by physical disruption of the tumors using cell strainers. Typically 1×10^5 cells were mixed with matrigel (50:50 volume) and injected subcutaneously into female NCr nu/nu mice on upper dorsal region between the shoulder blades. When these tumors grew to approximately 500 mm^3, which typically required 2 to 4 weeks, they were collected for further propagation, drug response testing, and analysis. Analysis included microarray profiling, general histopathology, and IHC (CD31 for tumor vasculature, Ki67 for tumor cell proliferation).
Evaluation of tumor response to tivozanib was performed essentially as follows. Subcutaneously transplanted tumors were established by injecting physically disrupted tumor cells (mixed with Matrigel) into 7 week-old female NCr nude mice. When the tumors reached approximately 200-400 mm^3, 30 tumor-bearing mice were randomized into three groups. Group 1 received vehicle. Group 2 received tivozanib at 5 mg/kg daily by oral gavage. Group 3 received tivozanib at 20 mg/kg daily by oral gavage. Tumors were measured twice per week by a caliper, and tumor volume was calculated. At the end of the treatment, tumors were collected for histopathological analysis and IHC analysis.
Based on tumor growth inhibition and typical histopathological and IHC (CD31) characteristics for angiogenesis inhibition, responders and non-responders were identified. […] The variation in response was expected, because the mouse model tumors had arisen spontaneously, and therefore they were expected to contain differing sets of random mutations that had led to tumorigenesis, including tumor angiogenesis. Such variation in response was desirable, because it was similar to the variation in naturally occurring human tumors, and thus enabled identification of tivozanib-responsive tumors and tivozanib-resistant tumors for use in identifying the molecular signature or tivozanib responsiveness.

[3] abbreviates: of 26 individual murine breast tumors, FIG. 1.

Chain of VEGF receptor 3 (P35916 25-1363): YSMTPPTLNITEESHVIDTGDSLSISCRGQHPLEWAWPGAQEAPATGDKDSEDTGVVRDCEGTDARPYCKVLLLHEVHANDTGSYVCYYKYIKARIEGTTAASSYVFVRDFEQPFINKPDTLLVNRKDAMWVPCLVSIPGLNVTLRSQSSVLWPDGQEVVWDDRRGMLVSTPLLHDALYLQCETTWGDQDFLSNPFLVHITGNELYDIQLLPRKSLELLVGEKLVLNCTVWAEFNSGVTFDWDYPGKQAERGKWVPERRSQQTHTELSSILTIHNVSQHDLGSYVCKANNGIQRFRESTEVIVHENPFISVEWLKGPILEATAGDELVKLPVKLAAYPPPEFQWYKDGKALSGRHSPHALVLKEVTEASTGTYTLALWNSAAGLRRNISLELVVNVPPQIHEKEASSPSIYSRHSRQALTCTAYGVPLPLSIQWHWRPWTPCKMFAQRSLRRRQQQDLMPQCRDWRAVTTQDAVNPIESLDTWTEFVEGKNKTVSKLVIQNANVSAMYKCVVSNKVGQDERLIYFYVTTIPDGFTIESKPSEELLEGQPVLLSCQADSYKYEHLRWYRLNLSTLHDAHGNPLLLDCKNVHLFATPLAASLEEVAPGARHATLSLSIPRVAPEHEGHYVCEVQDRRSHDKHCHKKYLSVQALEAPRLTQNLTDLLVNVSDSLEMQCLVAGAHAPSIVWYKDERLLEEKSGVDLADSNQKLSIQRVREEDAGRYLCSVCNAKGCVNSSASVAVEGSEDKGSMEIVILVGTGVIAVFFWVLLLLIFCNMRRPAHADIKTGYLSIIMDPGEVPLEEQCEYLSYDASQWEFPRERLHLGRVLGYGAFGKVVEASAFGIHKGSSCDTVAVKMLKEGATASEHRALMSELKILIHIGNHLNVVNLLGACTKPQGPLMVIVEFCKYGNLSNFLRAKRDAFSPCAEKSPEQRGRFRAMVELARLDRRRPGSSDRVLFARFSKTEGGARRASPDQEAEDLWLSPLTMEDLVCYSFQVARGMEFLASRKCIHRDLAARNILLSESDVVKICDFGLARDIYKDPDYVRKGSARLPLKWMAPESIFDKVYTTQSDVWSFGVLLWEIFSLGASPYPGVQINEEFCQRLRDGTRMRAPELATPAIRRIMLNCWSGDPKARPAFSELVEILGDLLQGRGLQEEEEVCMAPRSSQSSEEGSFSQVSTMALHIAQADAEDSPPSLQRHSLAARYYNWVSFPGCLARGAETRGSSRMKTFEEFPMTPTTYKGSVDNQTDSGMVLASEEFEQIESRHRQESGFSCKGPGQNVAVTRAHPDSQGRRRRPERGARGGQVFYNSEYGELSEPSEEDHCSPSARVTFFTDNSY

In the case of `COc1cc2nccc(Oc3ccc(NC(=O)Nc4cc(C)on4)c(Cl)c3)c2cc1OC` [tivozanib, N-{2-chloro-4-[(6,7-dimethoxy-4-quinolyl)oxy]-phenyl}-N′-(5-methyl-3-isoxazolyl)urea], the antitumor activity result in the assay on preclinical models was “exhibits antitumor activity”. The “interim results of clinical trial” value in assay [1] was “positive interim results”. Also, the inhibitory activity result on VEGF receptor 3 is on record as “picomolar”. Also, the “variation in response among tumors” value in assay [2] (5 or 20 mg/kg daily by oral gavage) was “significant tumor-to-tumor variation in response”. Moreover, in assay [2] (setting [3]), the “number of tumors classified as non-responsive (tivozanib resistant tumors)” value was 18 and the “number of tumors classified as responsive (tivozanib sensitive tumors)” value is given as “eight”. Besides, in assay [2] (responder tumors, 5 mg/kg daily by oral gavage), the “tumor progression by caliper measurement” value is “no tumor progression”. The “tumor killing (by histology)” value in assay [2] (responder tumors, 5 mg/kg daily by oral gavage, except the peripheries) is recorded as “close to complete tumor killing”.
